# Experimental data from article PMC8762250, “Identification of Novel Chemical Scaffolds that Inhibit the Growth of Mycobacterium tuberculosis in Macrophages” (Frontiers in Pharmacology, 2022).
# Values joined by “and” are separate entries in the source; they are usually repeats but may differ in a detail not shown here. Identical values can stand only once. Like-named read-outs stand apart in the source and are kept apart here. Marks after values point to notes of the source that are not given here.
# Experiments:
# HepG2 cells = assay: HepG2 cytotoxicity (CellTiter-Glo, 72 h); format: cell-based, human; conditions: for HepG2 cytotoxicity TC50 Galactose / HepG2 cytotoxicity TC50 Glucose: 72 h; for ratio of TC50glu/TC50gal: HepG2, glucose vs galactose
# Procedure: (§1) Cytotoxicity against HepG2 cells was measured after 72 h. Cells were seeded in 384-well plates at 1,800 cells per well. Compounds were added as a 10-point three-fold serial dilution after 24 h (final assay concentration of 1% DMSO). CellTiter-Glo® reagent (Promega) was added and relative luminescence units (RLU) measured. Data were normalized to the DMSO controls. Curves were fitted using the Levenberg–Marquardt algorithm; TC50 was calculated as the compound concentration required to reduce cell viability by 50%.
# (§2) We further evaluated cytotoxicity using the HepG2 cell line cultured with either glucose or galactose in the medium (Table 2). HepG2 cells cultured with galactose rely on mitochondrial oxidative phosphorylation rather than glycolysis which increases their susceptibility to mitochondrial toxicants allowing us to identify compounds with mitochondrial toxicity ([Kamalian et al., 2015]).
# M. tuberculosis [1] = assay: Minimum inhibitory concentration in liquid medium (axenic culture); format: cell-based, Mycobacterium tuberculosis; conditions: Mycobacterium tuberculosis; for IC50: read-out: Anti-tubercular activity in axenic culture IC50
# RAW264.7 cells = assay: Macrophage viability in the same high content assay; conditions: infected RAW264.7 macrophages; for Intracellular activity Cytotoxicity TC50: 72 h; for Intracellular RAW TC50: SAR tables 4-8
# M. tuberculosis [2] = assay: High content assay of intracellular M. tuberculosis growth in infected RAW264.7 macrophages; format: cell-based, Mycobacterium tuberculosis H37Rv-LP; conditions: Mycobacterium tuberculosis, RAW264.7, 72 h, M. tuberculosis in RAW264.7 cells, MOI 1, 72 h; read-out: Intracellular activity Anti-tubercular activity IC50
# Procedure: Compounds were obtained in 384-well plates as 10 mM DMSO stock solutions and tested as described ([Manning et al., 2017]). Briefly, assay plates were prepared in clear bottom, black 384-well plates with 30 μl cRPMI and 0.6 μl compound in columns 3–22 (final concentration of 10 μM compound, 1% DMSO). […] INH and STA were also included in dose response on each plate. RAW264.7 cells were infected with M. tuberculosis DREAM8 as described ([Manning et al., 2017]) at an MOI of 1 for 24 h and extracellular bacteria removed by washing. Cells were recovered using Accumax, harvested, washed and resuspended in serum-free RPMI; 30 μl of infected cells were dispensed into each well at 3,300 cells/well. Plates were incubated for 72 h, 10 μl of 5X SYBR Green I was added and plates were imaged with an ImageXpress Micro High Content Screening System (Molecular Devices) using a ×4 objective and FITC and Texas Red channels. MetaXpress was used to analyze images. The integrated intensity of M. tuberculosis or macrophages was calculated for each well. Growth inhibition was calculated for each test well by normalizing to the average integrated intensity of the DMSO control wells. IC50 was calculated as the compound concentration required to reduce bacterial growth by 50%. TC50 was calculated as the compound concentration required to reduce macrophage viability by 50%.
# [3] = HepG2 cytotoxicity (CellTiter-Glo, 72 h); format: cell-based, human; conditions: human
# Procedure: as §1, §2
# [4] = 120 h, extracellular, 5 days, OD590
# [5] = 120 h, extracellular, 5 days, OD590, read-out: Anti-tubercular activity in axenic culture IC90
# [6] = HepG2 cytotoxicity IC50 Galactose
# [7] = HepG2 cytotoxicity IC50 Glucose
# [8] = axenic culture, SAR tables 4-8, read-out: Extracellular IC90
SMILES,HepG2 cytotoxicity TC50 Galactose (HepG2 cells; human),HepG2 cytotoxicity TC50 Glucose (HepG2 cells; human),IC50 (M. tuberculosis [1]; [4]),IC90 (M. tuberculosis [1]; [5]),Intracellular activity Cytotoxicity TC50 (RAW264.7 cells),IC50 (M. tuberculosis [2]),ratio of TC50glu/TC50gal (HepG2 cells),"IC50 at 72 h [3, 6]","IC50 at 72 h [3, 7]",IC90 (M. tuberculosis [1]; [8]),Intracellular RAW TC50 (RAW264.7 cells),HepG2 cytotoxicity TC50 Galactose (HepG2 cells; galactose medium),HepG2 cytotoxicity TC50 Glucose (HepG2 cells; glucose medium),IC50 (M. tuberculosis [1]; 120 h),"IC90 (M. tuberculosis [1]; 120 h, read-out: Anti-tubercular activity in axenic culture IC90)"
Clc1ccc(C2C=C(c3ccc(Br)cc3)Nc3ncnn32)cc1 (stereo not drawn) [TPN-0095026],18 ± 5 ^b µM,19 ± 3.5 ^b µM,19 ± 1 µM,> 20 µM,19 ± 12 ^b µM,,,,,,,,,,
O=C(CN(C1=NCCCS1)c1ccccc1)c1ccc(Cl)c(Cl)c1 [TPN-0095036],20 ± 0.47 ^c µM,21 ± 3.4 ^c µM,> 20 µM,> 20 µM,27 ± 2.8 ^c µM,3.5 ± 0.97 µM,,,,,,,,,
Cn1nc(C2CC2)cc1C(=O)Nc1ccc(I)cc1 [TPN-0089788],30 ± 12 ^e µM,52 ± 18 ^e µM,> 20 µM,> 20 µM,>100e µM,2.5 ± 0.57 µM,,,,,,,,,
Cc1ccc(Nc2nc(-c3ccc(Cl)cc3)cs2)cc1Cl [TPN-0095032],19 ± 0.5 ^b µM,23 ± 1.5 ^b µM,> 20 µM,> 20 µM,9.9 ± 0.98 ^c µM,3.5 ± 0.83 µM,,,,,,,,,
COc1c(Cl)ccc(Cl)c1C(=O)Nc1sc2c(c1C(N)=O)CCCC2 [TPN-0073571],26 ± 5.0 ^b µM,>100 ^b µM,,,15 ± 5 µM and 15 ± 5.0 ^b µM,,~4,26 ± 5 µM,> 100 µM,,,,,,
Cc1sc(NC(=O)c2ccc(OC(C)C)cc2)c(C(N)=O)c1C [TPN-0073559],41 ± 11 ^c µM,49 ± 8.5 ^c µM,> 20 µM,> 20 µM,50 ± 24 ^d µM,,,41 ± 11 µM,49 ± 8.5 µM,> 20 µM,50 ± 24 ^d µM,,,,
Cc1ccc(OCC(=O)Nc2ccc(N3CCCCC3)c(Cl)c2)cc1 [TPN-0006206],>100 ^b µM,>100 ^b µM,> 20 µM,> 20 µM,57 ± 20 ^b µM,,,> 100 µM,> 100 µM,> 20 µM,57 ± 20 ^c µM,,,,
COc1ccc(C(=O)c2sc(NCc3ccccc3)nc2N)cc1 [TPN-0095041],24 ± 0.5 ^b µM,52 ± 5.5 ^b µM,14 ± 1 µM,> 20 µM,13 ± 5.5 ^c µM,3.6 ± 0.5 µM,,,,,,,,,
O=C(c1c(F)cccc1F)N1CCN(c2cc(N3CCCCCC3)c(F)cc2[N+](=O)[O-])CC1 [TPN-0095035],21 ± 2.0 ^b µM,27 ± 0 ^b µM,9.6 ± 0.1 µM,> 10 µM,>50 ^c µM,1 ± 0.02 µM,,,,,,,,,
O=c1c(/C=N/Cc2cccnc2)c(NCc2cccnc2)nc2ccccn12 [TPN-0095033],>100 ^c µM,>100 ^c µM,> 20 µM,> 20 µM,>100 ^c µM,3.4 ± 2.6 µM,,,,,,,,,
COc1ccc(C2Oc3ccc(Cl)cc3C3=C2C(c2ccc(OC)cc2)n2ncnc2N3)cc1 (stereo not drawn) [TPN-0095029],>50 ^b µM,>50 ^b µM,> 10 µM,> 10 µM,>50 ^b µM,> 50 µM,,,,,,,,,
Cc1ccc(Nc2nc(C(N)=O)c(N)s2)cc1 [TPN-0095028],62 ± 6.2 ^c µM,54 ± 9.4 ^c µM,> 20 µM,> 20 µM,54 ± 20 ^b µM,4.4 ± 1.3 µM,,,,,,,,,
Cc1c(Cc2ccccc2)sc(NC(=O)c2ccccc2Cl)c1C(N)=O [TPN-0073560],42 ± 3.3 ^c µM,>100 ^b µM,> 20 µM,> 20 µM,23 ± 4.7 ^d µM,,~4,42 ± 3.3 µM,> 100 µM,> 20 µM,23 ± 4.7 ^d µM,,,,
CCOC(=O)c1nnn(-c2nc(N3CCCC3)nc(N3CCCC3)n2)c1-c1ccccc1 [TPN-0095040],>50 ^c µM,>50 ^c µM,> 10 µM,> 10 µM,31 ± 18 ^b µM,,,,,,,,,,
O=C(c1ccc(Cl)c(Cl)c1)N1CCN(c2ccc([N+](=O)[O-])c3cccnc23)CC1 [TPN-0095034],>100 ^c µM,>100 ^c µM,> 20 µM,> 20 µM,>100 ^d µM,8.4 ± 2.3 µM,,,,,,,,,
Clc1c(-c2ccccc2)nc2ccccn12 [TPN-0095030],>100 ^b µM,>100 ^b µM,> 20 µM,> 20 µM,>100 ^b µM,6.9 ± 1.9 µM,,,,,,,,,
Clc1ccc(Nc2nc(-c3cccs3)cs2)cc1 [TPN-0095025],28 ± 1.5 ^b µM,35 ± 1.0 ^a µM,> 20 µM,> 20 µM,26 ± 7.1 ^c µM,4.4 ± 1.7 µM,,,,,,,,,
CCOC(=O)c1sc(NC(=O)Cc2c(F)cccc2Cl)nc1C [TPN-0089695],>100 ^e µM,>100 ^d µM,19 µM,> 20 µM,45 ± 17 ^b µM,4.7 ± 1.2 µM,,,,,,,,,
COc1ccc(OCCNC(=O)c2cc([N+](=O)[O-])cc([N+](=O)[O-])c2)cc1 [TPN-0095031],,,,,40 ± 25 ^e µM,0.036 ± 0.007 µM,,,,,,52 ± 0.47 ^c µM,57 ± 6.2 ^c µM,0.2 ± 0.07 µM,0.4 ± 0.14 µM
Cc1ccc(NC(=O)CCN2CCN(c3ccc(Cl)cc3)CC2)cc1 [TPN-0095037],56 ± 4 ^b µM,84 ± 2.5 ^b µM,> 20 µM,> 20 µM,54 ± 26 ^c µM,2 ± 0.53 µM,,,,,,,,,
"NNC(=O)c1ccncc1 [INH, isoniazid, reference compound]",,,,,,0.23 ± 0.08 µM,,,,,,,,,
Brc1c(-c2ccccc2)nc2ccccn12 [TPN-0095038],>100 ^c µM,>100 ^b µM,9.2 ± 1 µM,> 20 µM,72 ± 15 ^b µM,2.5 µM,,,,,,,,,
COc1ccc(CNC(=O)c2c(C)nc3ccccn23)cc1 [TPN-0095027],22 ± 2.2 ^c µM,76 ± 12 ^c µM,0.17 ± 0.02 µM,0.6 ± 0.2 µM,72 ± 16 ^d µM,0.1 ± 0.01 µM,,,,,,,,,
O=C(CN1CCC(Cc2ccccc2)CC1)Nc1ccc(Cl)cn1 [TPN-0095042],19 ± 1.0 ^b µM,26 ± 3.0 ^b µM,> 10 µM,> 10 µM,21 ± 9.3 ^c µM,3.7 ± 0.62 µM,,,,,,,,,
Fc1ccc(C2CC(c3ccc(Cl)cc3Cl)n3ncnc3N2)cc1 (stereo not drawn) [TPN-0095039],30 ± 3.2 ^d µM,29 ± 7.7 ^e µM,14 ± 2.1 µM,18 ± 1.4 µM,24 ± 6.1 ^c µM,2.1 ± 0.74 µM,,,,,,,,,
